Consider 72 compounds from patent publication US9440952B2, “Compounds inhibiting leucine-rich repeat kinase enzyme activity” (Merck Sharp & Dohme Corp., priority 2013, dated 2016).

SMILES strings stand for the structures. Read-outs that look alike come from different tables or passages of the source.

In this test the target is T1, LRRK2(G2019S mutation, GST-LRRK2(amino acids 970-2527)) (Homo sapiens, UniProt Q5S007, G2019S).
T1 construct: GST-LRRK2(amino acids 970-2527); GST (N); purchased Life Technologies Corporation
Put plainly: LRRK2 Km ATP LanthaScreen Assay. The test is classed as biochemical. As for the experimental part:
Unless otherwise noted, all LRRK2 IC50 data presented in tables refers to the LRRK2 Km ATP LanthaScreen™ Assay that is described in the Biological Assay section.
The data presented for the 5 mM and Km ATP LanthaScreen™ Assay represents mean IC50 values based on several test results and may have reasonable. deviations depending on the specific conditions and reagents used. Reagents for the LRRK2 5 mM and Km ATP LanthaScreen™ Assay were purchased from Life Technologies Corporation.
Results are analysed using Assay Data Analyzer.
Background: TR-FRET usually uses a lanthanide donor and a delayed reading to cut background.

[1] abbreviates: Km ATP LanthaScreen Assay, LRRK2 G2019S, mean IC50 values, read-out: LRRK2 IC50.
The mark [2] stands for this setting: Km ATP LanthaScreen, mean IC50 of several tests, read-out: LRRK2 IC50.
Setting [3] is: Km ATP LanthaScreen Assay; LRRK2 G2019S; mean IC50 values; Examples 185-215; read-out: LRRK2 IC5).

T1 sequence (Q5S007 970-2527 G2019S): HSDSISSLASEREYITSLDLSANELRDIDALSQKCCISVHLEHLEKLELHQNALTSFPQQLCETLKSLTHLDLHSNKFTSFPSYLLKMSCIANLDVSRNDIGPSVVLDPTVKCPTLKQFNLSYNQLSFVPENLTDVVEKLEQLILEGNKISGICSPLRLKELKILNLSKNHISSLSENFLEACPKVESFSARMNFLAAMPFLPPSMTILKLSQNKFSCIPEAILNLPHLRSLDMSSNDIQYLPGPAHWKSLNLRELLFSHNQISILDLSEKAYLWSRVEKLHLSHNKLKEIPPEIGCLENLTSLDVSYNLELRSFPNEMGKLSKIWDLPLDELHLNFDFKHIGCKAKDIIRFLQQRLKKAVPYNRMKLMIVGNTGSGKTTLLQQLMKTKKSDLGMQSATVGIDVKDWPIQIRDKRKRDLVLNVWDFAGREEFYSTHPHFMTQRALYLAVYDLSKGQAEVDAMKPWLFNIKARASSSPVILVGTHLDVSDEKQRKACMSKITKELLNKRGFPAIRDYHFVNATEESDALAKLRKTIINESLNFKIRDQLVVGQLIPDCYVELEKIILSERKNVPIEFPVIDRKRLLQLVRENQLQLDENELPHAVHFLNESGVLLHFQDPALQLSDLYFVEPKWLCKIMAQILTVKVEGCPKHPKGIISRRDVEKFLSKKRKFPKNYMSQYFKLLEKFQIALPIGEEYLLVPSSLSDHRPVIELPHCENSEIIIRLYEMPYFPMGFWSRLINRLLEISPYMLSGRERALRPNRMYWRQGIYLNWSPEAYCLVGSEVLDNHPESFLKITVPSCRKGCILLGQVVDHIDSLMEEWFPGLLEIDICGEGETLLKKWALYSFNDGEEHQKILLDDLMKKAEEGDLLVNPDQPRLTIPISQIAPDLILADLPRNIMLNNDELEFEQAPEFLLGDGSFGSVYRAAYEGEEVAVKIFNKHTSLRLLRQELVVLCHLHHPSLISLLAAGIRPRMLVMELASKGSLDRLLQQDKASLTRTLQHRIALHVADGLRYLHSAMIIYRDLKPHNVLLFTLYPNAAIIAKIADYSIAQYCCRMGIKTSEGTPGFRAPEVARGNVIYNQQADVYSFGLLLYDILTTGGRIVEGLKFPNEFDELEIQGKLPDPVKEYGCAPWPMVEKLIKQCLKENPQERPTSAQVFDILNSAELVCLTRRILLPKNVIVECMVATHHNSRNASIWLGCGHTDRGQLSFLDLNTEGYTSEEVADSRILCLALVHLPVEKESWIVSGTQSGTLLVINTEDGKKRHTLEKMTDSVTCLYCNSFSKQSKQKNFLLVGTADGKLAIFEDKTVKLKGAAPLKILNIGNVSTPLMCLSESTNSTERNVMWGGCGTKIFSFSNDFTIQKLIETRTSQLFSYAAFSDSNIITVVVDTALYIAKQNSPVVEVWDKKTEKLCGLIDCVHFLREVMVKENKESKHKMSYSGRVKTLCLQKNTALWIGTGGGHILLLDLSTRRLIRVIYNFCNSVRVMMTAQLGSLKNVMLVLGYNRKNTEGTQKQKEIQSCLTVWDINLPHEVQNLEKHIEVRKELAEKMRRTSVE

`CC(C)Oc1ccc2[nH]nc(-c3ccnc(NC(=O)CC4CC4)c3)c2c1` [Example 152]: the IC50 under setting [1] was determined as 35.8 nM.
Still for that read-out and setting: in the case of `CN(Cc1ccc2[nH]nc(-c3ccnc(N4CCOCC4)c3)c2c1)C1CCCC1` [Example 92] it was 54 nM.
As to `N#Cc1ccc2c(-c3ccnc(N4CCOCC4)c3)n[nH]c2c1` [Example 106], under setting [2], the IC50 amounted to 49 nM.
On to `CN(C)[C@@H]1CCN(c2cc(-c3n[nH]c4ccccc34)ccn2)C1` [Example 35], for which the IC50 under setting [1] was determined as 28 nM.
For `CC(C)Oc1ccc2[nH]nc(-c3ccnc(N4CCN(c5ncc6ccccc6n5)CC4)c3)c2c1` [Example 212], the IC50 under setting [3] came out at 70.6 nM.
Regarding `OCCNc1cc(-c2n[nH]c3ccccc23)ccn1` [Example 9], the IC50 under setting [1] was 54 nM.
In the case of `Cc1nc2c(o1)CCN(c1cc(-c3n[nH]c4ccc(OC(F)(F)F)cc34)ccn1)C2` [Example 251], the IC50 under setting [1] was determined as 431 nM.
The same measure, in the same setting: in the case of `COC1CN(c2cc(-c3n[nH]c4ccc(OC(F)(F)F)cc34)ccn2)C1` [Example 246] it was 289 nM; in that of `CC(C)Oc1ccc2[nH]nc(-c3ccnc(N4CCc5ccccc5C4)c3)c2c1` [Example 139], 18.1 nM.
With `CCOc1ccc2[nH]nc(-c3ccnc(N4CC(O)(C(F)(F)F)C4)c3)c2c1` [Example 361], the IC50 under setting [2] was less than 0.6 nM.
On the same count and under the same terms, in the case of `COCCOc1ccc2[nH]nc(-c3ccnc(N4CCOCC4)c3)c2c1` [Example 377] it was 70 nM.
In the case of `CS(=O)(=O)C1CN(c2cc(-c3n[nH]c4ccc(OC(F)(F)F)cc34)ccn2)C1` [Example 236], the IC50 under setting [1] turned out to be 106 nM.
Still for that read-out and setting: then `c1ccc2c(-c3ccnc(N4CCC5OCCC54)c3)n[nH]c2c1` (stereo not drawn) [Example 63], with 40 nM.
With `CCOc1ccc2[nH]nc(-c3ccnc(N4CCCC4)c3)c2c1` [Example 297], under setting [2], the IC50 worked out at 7.3 nM.
On to `CC(C)Oc1ccc2[nH]nc(-c3ccnc(NC4Cc5ccccc5C4)c3)c2c1` [Example 130], for which, under setting [1], the IC50 was determined as 13.3 nM.
Still for that read-out and setting: then `CC(C)Oc1ccc2[nH]nc(-c3ccnc(NC(=O)c4cnc(C(C)C)nc4)c3)c2c1` [Example 147], with 70.8 nM.
On to `Cc1ncc(N2CCN(c3cc(-c4n[nH]c5ccc(OC(C)C)cc45)ccn3)CC2)s1` [Example 206], for which, under setting [3], the IC50 is 10.5 nM.
Regarding `CS(=O)(=O)c1cccc(Nc2ccc3[nH]nc(-c4ccnc(NC5CC5)c4)c3c2)c1` [Example 112], the IC50 under setting [1] was 11 nM.
On the same count and under the same terms, in the case of `CO[C@@H]1CCN(c2cc(-c3n[nH]c4ccc(OC(F)(F)F)cc34)ccn2)C1` [Example 250] it was 854 nM.
Turning to `c1cc(-c2n[nH]c3ccc(C4CC4)cc23)cc(N2CCOCC2)n1` [Example 387], the IC50 under setting [2] is 6 nM.
On the same count and under the same terms, in the case of `CCCOc1ccc2[nH]nc(-c3ccnc(N4CCN(C)CC4)c3)c2c1` [Example 294] it was 17 nM; in that of `COC1CCN(c2cc(-c3n[nH]c4ccc(OC(C)C)cc34)ccn2)CC1` [Example 290], 6 nM; in that of `CC(C)Oc1ccc2[nH]nc(-c3ccnc(N4CCN(C(=O)C5CC5)C(C)C4)c3)c2c1` (stereo not drawn) [Example 386], 2.8 nM.
In the case of `c1ccc2c(-c3ccnc(N4CCN(Cc5ccncc5)CC4)c3)n[nH]c2c1` [Example 19], the IC50 under setting [1] was found to be 18 nM.
On the same count and under the same terms, then `c1cc(-c2n[nH]c3ccc(OCC4CCCO4)cc23)cc(N2CCOCC2)n1` (stereo not drawn) [Example 83], with 5.4 nM.
As for `CC(C)Oc1ccc2[nH]nc(-c3ccnc(NS(=O)(=O)C4CC4)c3)c2c1` [Example 259], the IC50 under setting [2] stood at 63.2 nM.
In the case of `CC(C)Oc1ccc2[nH]nc(-c3ccnc(NC(=O)C4CC(=O)C4)c3)c2c1` [Example 153], the IC50 under setting [1] was determined as 29.7 nM.
In the case of `c1cc(-c2n[nH]c3ccc(CNC4CCCNC4)cc23)cc(N2CCOCC2)n1` (stereo not drawn) [Example 96], the IC50 under setting [1] amounted to 110 nM.
For `FC1CN(c2cc(-c3n[nH]c4ccc(-c5cccnc5)cc34)ccn2)C1` [Example 306], the IC50 under setting [2] came out at 2.9 nM.
As for `FC(F)(F)Oc1ccc2[nH]nc(-c3ccnc(N4CCCC4)c3)c2c1` [Example 233], the IC50 under setting [1] is 130 nM.
For the compound `COc1cnc(-c2ccc3[nH]nc(-c4ccnc(N5CCOCC5)c4)c3c2)nc1` [Example 339], the IC50 under setting [2] was 22 nM.
On the same count and under the same terms, in the case of `Cc1cccc(Nc2ccc3[nH]nc(-c4ccnc(N5CCOCC5)c4)c3c2)c1` [Example 114] it was 28.7 nM; in that of `Brc1ccc2[nH]nc(-c3ccnc(N4CCOCC4)c3)c2c1` [Example 77], 11 nM.
Take `CC(C)Oc1ccc2[nH]nc(-c3ccnc(NCc4ccccn4)c3)c2c1` [Example 132]: the IC50 under setting [1] turned out to be 2.2 nM.
The same measure, in the same setting: then `c1ccc2c(-c3ccnc(N4CCCC4)c3)n[nH]c2c1` [Example 5], with 17 nM.
`CC(C)Oc1ccc2[nH]nc(-c3ccnc(N4CCN(c5ncccn5)CC4)c3)c2c1` [Example 204]: the IC50 under setting [3] came out at 7.9 nM.
As for `CC(O)c1ccc2[nH]nc(-c3ccnc(N4CCOC(CCO)C4)c3)c2c1` (stereo not drawn) [Example 127], the IC50 under setting [1] was found to be 17 nM.
For the compound `Cn1cnnc1-c1ccc2[nH]nc(-c3ccnc(N4CCOCC4)c3)c2c1` [Ex 341], under setting [2], the IC50 was determined as 1.4 nM.
Turning to `CCOc1ccc2[nH]nc(-c3ccnc(N4C[C@@H]5C[C@H]4CO5)c3)c2c1` [Example 221], the IC50 under setting [1] was 20.9 nM.
The same measure, in the same setting: then `CS(=O)(=O)N1CCN(c2cc(-c3n[nH]c4ccccc34)ccn2)CC1` [Example 18], with 17 nM.
With `c1cc(-c2n[nH]c3cc4c(cc23)OCCO4)cc(N2CCOCC2)n1` [Example 394], under setting [2], the IC50 came to 12 nM.
As for `CC(CO)Nc1cc(-c2n[nH]c3ccc(OC(C)C)cc23)ccn1` (stereo not drawn) [Example 129], the IC50 under setting [1] worked out at 2120 nM.
The same measure, in the same setting: in the case of `OCCOCCNc1cc(-c2n[nH]c3ccccc23)ccn1` [Example 58] it was 51 nM.
Take `CC(C)Oc1ccc2[nH]nc(-c3ccnc(N4CCn5nc(C6CC6)nc5C4)c3)c2c1` [Example 214]: the IC50 under setting [3] was 15.4 nM.
For the compound `CC(C)COc1ccc2[nH]nc(-c3ccnc(N4CCOCC4)c3)c2c1` [Example 84], under setting [1], the IC50 is 5.9 nM.
The same measure, in the same setting: in the case of `CN(CC1CCC(=O)N1)c1cc(-c2n[nH]c3ccccc23)ccn1` (stereo not drawn) [Example 69] it was 75 nM.
Consider `Cc1ncc(-c2ccc3[nH]nc(-c4ccnc(N5CCOCC5)c4)c3c2)n1C` [Example 317], for which, under setting [2], the IC50 came to 1.4 nM.
On the same count and under the same terms, in the case of `Brc1ccc2c(-c3ccnc(N4CCOCC4)c3)n[nH]c2c1` [Example 103] it was 19 nM.
`c1ccc2c(-c3ccnc(N4CCCCC4)c3)n[nH]c2c1` [Example 6]: the IC50 under setting [1] stood at 16 nM.
Turning to `Cn1cc(-c2ccc3[nH]nc(-c4ccnc(N5CCC(n6cncn6)CC5)c4)c3c2)cn1` [Example 270], the IC50 under setting [2] worked out at 2.2 nM.
The same measure, in the same setting: in the case of `COc1ccc2c(-c3ccnc(N4CCOCC4)c3)n[nH]c2c1` [Example 105] it was 30 nM.
Same read-out and setting: in the case of `Cn1cc(-c2ccc3[nH]nc(-c4ccnc(N5CCN(c6ccncn6)CC5)c4)c3c2)cn1` [Example 277] it was 2.1 nM.
For the compound `c1ccc2c(-c3ccnc(N4CCC(c5ccncc5)CC4)c3)n[nH]c2c1` [Example 16], the IC50 under setting [1] was 186 nM.
For the compound `CC(C)Oc1ccc2[nH]nc(-c3ccnc(NS(=O)(=O)Cc4ccccn4)c3)c2c1` [Example 261], the IC50 under setting [2] amounted to 124 nM.
Same read-out and setting: then `CCOc1ccc2[nH]nc(-c3ccnc(NCCO)c3)c2c1` [Example 355], with 10 nM.
`CN(C)CC1CN(c2cc(-c3n[nH]c4ccccc34)ccn2)CCO1` (stereo not drawn) [Example 43]: the IC50 under setting [1] was 19 nM.
Same read-out and setting: in the case of `c1ccc2c(-c3ccnc(N4CCC5(CC4)OCCO5)c3)n[nH]c2c1` [Example 15, 8-[4-(1H-indazol-3-yl)pyridin-2-yl]-1,4-dioxa-8-azaspiro[4.5]decane] it was 36 nM.
Regarding `CC(C)Oc1ccc2[nH]nc(-c3ccnc(NS(=O)(=O)c4ccc(C(C)(C)C#N)cc4)c3)c2c1` [Example 264], the IC50 under setting [2] is 68.8 nM.
For `FC(F)(F)Oc1ccc2[nH]nc(-c3ccnc(N4CCc5nc(C6CC6)oc5C4)c3)c2c1` [Example 252], the IC50 under setting [1] turned out to be 700 nM.
Turning to `CCOc1ccc2[nH]nc(-c3ccnc(N[C@H](C)CO)c3)c2c1` [Example 357], the IC50 under setting [2] worked out at 5.5 nM.
With `CC(C)Oc1ccc2[nH]nc(-c3ccnc(NC(=O)C4CCN(c5ccccn5)C4)c3)c2c1` (stereo not drawn) [Example 167], under setting [1], the IC50 turned out to be 78 nM.
Regarding `COc1ccnc(F)c1-c1ccc2[nH]nc(-c3ccnc(N4CCOCC4)c3)c2c1` [Example 117], the IC50 under setting [2] stood at 3.4 nM.
On the same count and under the same terms, then `CC(C)(O)Cc1ccc2[nH]nc(-c3ccnc(N4CCOCC4)c3)c2c1` [Example 332], with 93 nM; and `O=S(=O)(c1ccc2[nH]nc(-c3ccnc(N4CCOCC4)c3)c2c1)C1CC1` [Example 370], with 18 nM.
Same read-out and setting: then `CC(C)Oc1ccc2[nH]nc(-c3ccnc(N4CCN(CCO)CC4)c3)c2c1` [Example 299], with 2 nM.
Consider `COc1ccc(C2CC2C(=O)Nc2cc(-c3n[nH]c4ccc(OC(C)C)cc34)ccn2)cc1` (stereo not drawn) [Example 159], for which, under setting [1], the IC50 came out at 782 nM.
On the same count and under the same terms, then `CCOc1ccc2[nH]nc(-c3ccnc(N4CCC(n5cccn5)CC4)c3)c2c1` [Example 218], with 14.4 nM; and `CC(C)Oc1ccc2[nH]nc(-c3ccnc(NC(=O)c4cc(F)cc(F)c4)c3)c2c1` [Example 169], with 169 nM.
On to `COc1ccc(-c2ccc3[nH]nc(-c4ccnc(N5CCOCC5)c4)c3c2)c(OC)n1` [Example 328], for which, under setting [2], the IC50 was 189 nM.
Consider `Cn1cc(-c2ccc3[nH]nc(-c4ccnc(N5CCC(C(=O)O)CC5)c4)c3c2)cn1` [Example 304], for which the IC50 under setting [2] is 3.6 nM.
The same measure, in the same setting: then `Cn1cc(-c2cc3c(-c4ccnc(N5CC(F)C5)c4)n[nH]c3cc2F)cn1` [Ex 353], with 4.6 nM.
Take `CC(C)Oc1ccc2[nH]nc(-c3ccnc(NC(=O)c4ccno4)c3)c2c1` [Example 142]: the IC50 under setting [1] is 21.4 nM.
